Reference: ChEMBL document CHEMBL1201862, “PubChem BioAssay data set” (2004)
Calls of active or inactive are those of the source.

What was measured:
Coagulation factor XII = target: T1, Coagulation factor XII (Homo sapiens, UniProt P00748); assay type: functional;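 also: activated factor XIIa alpha cleaving a fluorogenic AMC peptide substrate; inhibitor potency from loss of enzyme activity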
T1 sequence (P00748 whole entry): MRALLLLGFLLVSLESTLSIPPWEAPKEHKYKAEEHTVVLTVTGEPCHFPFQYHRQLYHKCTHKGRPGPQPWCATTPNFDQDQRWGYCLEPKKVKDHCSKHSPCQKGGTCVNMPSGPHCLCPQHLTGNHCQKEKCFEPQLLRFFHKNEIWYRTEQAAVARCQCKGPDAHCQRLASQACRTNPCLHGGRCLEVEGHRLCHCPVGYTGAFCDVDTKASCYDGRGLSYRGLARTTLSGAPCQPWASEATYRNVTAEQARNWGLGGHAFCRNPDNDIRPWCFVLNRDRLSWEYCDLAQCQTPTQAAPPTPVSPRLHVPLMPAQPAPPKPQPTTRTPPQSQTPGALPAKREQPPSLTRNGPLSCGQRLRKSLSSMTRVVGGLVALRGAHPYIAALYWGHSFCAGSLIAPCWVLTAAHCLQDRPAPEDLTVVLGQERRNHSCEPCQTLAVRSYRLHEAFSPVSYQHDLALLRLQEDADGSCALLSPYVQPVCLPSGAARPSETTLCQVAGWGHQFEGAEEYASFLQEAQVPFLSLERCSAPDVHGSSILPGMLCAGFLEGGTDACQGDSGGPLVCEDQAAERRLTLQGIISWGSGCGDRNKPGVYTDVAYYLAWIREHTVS

[1] = target: DNA dC->dU-editing enzyme APOBEC-3A (Homo sapiens, UniProt P31941); assay: Dose Response confirmation of small molecule APOBEC3A DNA Deaminase Inhibitors via a fluorescence-based single-stranded DNA deaminase assay. [Related pubchem assays (depositor defined):AID493011, AID493024]; assay type: functional
[2] = target: DNA dC->dU-editing enzyme APOBEC-3G (Homo sapiens, UniProt Q9HC16); assay type: functional;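 also: Dose-response counterscreen measuring inhibition of APOBEC3G DNA deaminase activity, run while confirming APOBEC3A inhibitors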
[3] = target: T2, Tyrosine-protein phosphatase non-receptor type 7 (Homo sapiens, UniProt P35236); assay: SAR analysis of chemical inhibitors of HePTP using a Fluorescent assay - Set 2. [Related pubchem assays (depositor defined):AID1059, AID1077, AID1661, AID2085, AID521]; assay type: functional
T2 sequence (P35236 whole entry): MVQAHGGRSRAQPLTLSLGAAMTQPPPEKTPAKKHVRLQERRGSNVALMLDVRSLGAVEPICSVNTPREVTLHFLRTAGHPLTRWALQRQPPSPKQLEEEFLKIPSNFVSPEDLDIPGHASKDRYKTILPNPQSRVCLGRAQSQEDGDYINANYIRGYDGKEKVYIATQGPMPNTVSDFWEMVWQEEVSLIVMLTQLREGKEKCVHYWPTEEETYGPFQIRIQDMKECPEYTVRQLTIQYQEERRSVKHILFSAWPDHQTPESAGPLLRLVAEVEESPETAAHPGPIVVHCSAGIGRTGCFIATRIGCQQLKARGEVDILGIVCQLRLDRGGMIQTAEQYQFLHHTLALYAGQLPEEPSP

[4] = target: Dual specificity protein phosphatase 3 (Homo sapiens, UniProt P51452); assay: SAR VHR1 Fluorescent Assay for In Vitro dose response studies Set 2. [Related pubchem assays (depositor defined):AID1654, AID1661, AID1878]; assay type: functional
INS1 = assay: beta-cell survival under cytokine stress – INS-1E, ATP luminescence, dry powder, dose response (AID 488844); assay type: functional, cell-based; conditions: Rattus norvegicus
[5] = target: T3, E3 ubiquitin-protein ligase XIAP (Homo sapiens, UniProt P98170); assay: Counter Screen using XIAP-Bir3 for Chemical Antagonists of Bir1/2 domains of IAP-family anti-apoptotic proteins. [Related pubchem assays (depositor defined):AID1018, AID1449, AID1514, AID1638, AID1749, AID1750, AID488957, AID488963]
[6] = target: T3, E3 ubiquitin-protein ligase XIAP; assay: small molecules displacing peptide from XIAP – biochemical, IAP family, fluorescence polarization (AID 1018); assay type: functional
Vero [7] = assay: cells; assay type: functional, cell-based; conditions: Chlorocebus sabaeus
Vero [8] = assay: cells; assay type: functional; conditions: Chlorocebus sabaeus
[9] = target: Intestinal-type alkaline phosphatase (Mus musculus, UniProt P24822); assay: PubChem AID 488785; assay type: functional
[10] = target: T4, Alkaline phosphatase, tissue-nonspecific isozyme (Homo sapiens, UniProt P05186); assay: TNAP enzyme inhibition by screening hits, dose response, selectivity assay for mouse IAP inhibitor project, biochemical, human TNAP, uHTS hits (AID 488906); assay type: functional
T4 sequence (P05186 whole entry): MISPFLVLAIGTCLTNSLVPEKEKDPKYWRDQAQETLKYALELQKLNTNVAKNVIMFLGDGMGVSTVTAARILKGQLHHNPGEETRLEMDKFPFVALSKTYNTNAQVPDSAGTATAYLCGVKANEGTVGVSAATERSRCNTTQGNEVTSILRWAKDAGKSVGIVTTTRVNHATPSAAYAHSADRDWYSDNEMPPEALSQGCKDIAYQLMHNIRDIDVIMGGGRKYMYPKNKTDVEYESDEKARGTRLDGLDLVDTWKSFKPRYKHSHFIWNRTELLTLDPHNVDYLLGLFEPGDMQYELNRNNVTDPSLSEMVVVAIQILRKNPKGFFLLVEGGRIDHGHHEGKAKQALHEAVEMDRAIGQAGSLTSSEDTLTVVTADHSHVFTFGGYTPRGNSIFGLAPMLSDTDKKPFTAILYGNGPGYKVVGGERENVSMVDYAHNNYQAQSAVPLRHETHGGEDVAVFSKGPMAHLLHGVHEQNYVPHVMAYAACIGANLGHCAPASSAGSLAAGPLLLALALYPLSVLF

[11] = target: Intestinal-type alkaline phosphatase (Homo sapiens, UniProt P09923); assay: inhibition of human intestinal alkaline phosphatase – biochemical, dose response (AID 488876); assay type: functional
Albumin = Albumin (Bos taurus, UniProt P02769); assay: Counterscreen for inhibitors of T-cell receptor (TCR)-CD3 interaction: Fluorescence-based biochemical high throughput dose response assay to identify inhibitors of T-cell receptor (TCR)-CD3 interaction using a TAMRA-labeled BSA probe.; assay type: functional
[12] = target: Peroxisome proliferator-activated receptor gamma/Nuclear receptor coactivator 1 (Homo sapiens, UniProt P37231); assay: (§1) TR-FRET dose response biochemical High Throughput Screening assay for agonists of the steroid receptor coactivator 1 (SRC-1) recruitment by the peroxisome proliferator-activated receptor gamma (PPAR gamma): non-selective agonists. [Related pubchem assays (depositor defined):AID1300, AID1808, AID504735, AID631]; assay type: protein assay
[13] = target: Peroxisome proliferator-activated receptor gamma/Nuclear receptor coactivator 3 (Homo sapiens, UniProt P37231); assay: as §1, with “3 (SRC-3)” for “1 (SRC-1)”, “assays: 1301 (Confirmation screen.), 1048 (Primary screen.)]” for “assays (depositor defined):AID1300, AID1808, AID504735, AID631]”; assay type: functional
[14] = target: Peroxisome proliferator-activated receptor gamma/Nuclear receptor coactivator 2 (Homo sapiens, UniProt P37231); assay: TR-FRET dose response biochemical High Throughput Screening assay for agonists of the steroid receptor coactivator 2 (SRC-2) recruitment by the peroxisome proliferator-activated receptor gamma (PPAR gamma): non-selective agonists. [Related pubchem assays: 1297, 1032 ]; assay type: functional
Cytochrome P450 2C19 = Cytochrome P450 2C19 (Homo sapiens, UniProt P33261); assay: Cytochrome panel assay with activity outcomes. Panel member name: p450-cyp2c19 Compounds with AC50 equal or less than 10 uM are considered active; assay type: functional; conditions: read-out: AC50
Protein skinhead-1 = target: T5, Protein skinhead-1 (Caenorhabditis elegans, UniProt P34707); assay type: functional
T5 sequence (P34707 whole entry): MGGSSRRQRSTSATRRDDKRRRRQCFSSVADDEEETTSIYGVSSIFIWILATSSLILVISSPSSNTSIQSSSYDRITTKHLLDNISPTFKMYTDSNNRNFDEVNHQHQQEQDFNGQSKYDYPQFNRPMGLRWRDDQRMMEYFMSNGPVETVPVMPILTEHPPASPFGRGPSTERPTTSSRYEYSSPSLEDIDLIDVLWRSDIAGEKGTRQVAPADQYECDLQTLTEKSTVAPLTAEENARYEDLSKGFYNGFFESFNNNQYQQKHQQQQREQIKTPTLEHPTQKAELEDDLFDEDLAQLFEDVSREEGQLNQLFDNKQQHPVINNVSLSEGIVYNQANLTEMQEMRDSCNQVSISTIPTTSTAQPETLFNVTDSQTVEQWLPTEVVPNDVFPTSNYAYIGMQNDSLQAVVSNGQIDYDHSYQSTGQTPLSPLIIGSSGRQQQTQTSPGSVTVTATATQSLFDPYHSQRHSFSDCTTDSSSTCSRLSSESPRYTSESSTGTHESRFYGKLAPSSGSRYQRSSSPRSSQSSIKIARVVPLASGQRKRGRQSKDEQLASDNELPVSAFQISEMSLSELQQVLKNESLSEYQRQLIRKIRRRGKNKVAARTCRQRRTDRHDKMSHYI

[15] = target: T6, Carboxy-terminal domain RNA polymerase II polypeptide A small phosphatase 1 (Homo sapiens, UniProt Q9GZU7); assay: CTDSP1 inhibitors, concentration-response, biochemical, absorbance readout, ultra-high-throughput screen actives (AID 540297); assay type: functional
T6 sequence (Q9GZU7 whole entry): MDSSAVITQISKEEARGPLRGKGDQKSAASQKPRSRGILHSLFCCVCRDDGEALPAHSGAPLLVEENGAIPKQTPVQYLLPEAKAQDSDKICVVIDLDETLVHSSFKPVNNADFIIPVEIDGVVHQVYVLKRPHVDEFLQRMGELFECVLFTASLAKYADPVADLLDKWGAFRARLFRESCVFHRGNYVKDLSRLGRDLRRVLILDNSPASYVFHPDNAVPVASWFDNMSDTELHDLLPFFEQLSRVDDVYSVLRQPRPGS

H9c2 = assay: cells; assay type: functional, cell-based; conditions: Rattus norvegicus, H9c2, Myocardium;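 also: confirmatory concentration-response retest of ultra-high-throughput screening hits for modulation of myocardial damage; cell death induced by hydrogen peroxide oxidative stress; compound pretreatment for 60 min then peroxide exposure for 2 h; potency is for protecting the cells against peroxide damage rather than for killing them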
[16] = target: T7, Probable nicotinate-nucleotide adenylyltransferase (Staphylococcus aureus (strain N315), UniProt P65502); assay type: functional, Staphylococcus aureus subsp. aureus N315;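 as to IC50 Mean: confirmatory dose-response retesting of NadD inhibitor hits first found in an ultra-high-throughput screen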
[17] = target: T7, Probable nicotinate-nucleotide adenylyltransferase; assay type: functional, Staphylococcus aureus subsp. aureus N315; conditions: read-out: IC50_Mean

T7 sequence (P65502 whole entry): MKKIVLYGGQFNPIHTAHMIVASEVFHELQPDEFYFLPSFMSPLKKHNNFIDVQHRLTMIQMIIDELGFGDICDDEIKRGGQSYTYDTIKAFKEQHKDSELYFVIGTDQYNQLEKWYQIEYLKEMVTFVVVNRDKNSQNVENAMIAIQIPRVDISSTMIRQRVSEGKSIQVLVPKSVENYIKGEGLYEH
Chain of Intestinal-type alkaline phosphatase (Mus musculus, UniProt P24822) (P24822 whole entry): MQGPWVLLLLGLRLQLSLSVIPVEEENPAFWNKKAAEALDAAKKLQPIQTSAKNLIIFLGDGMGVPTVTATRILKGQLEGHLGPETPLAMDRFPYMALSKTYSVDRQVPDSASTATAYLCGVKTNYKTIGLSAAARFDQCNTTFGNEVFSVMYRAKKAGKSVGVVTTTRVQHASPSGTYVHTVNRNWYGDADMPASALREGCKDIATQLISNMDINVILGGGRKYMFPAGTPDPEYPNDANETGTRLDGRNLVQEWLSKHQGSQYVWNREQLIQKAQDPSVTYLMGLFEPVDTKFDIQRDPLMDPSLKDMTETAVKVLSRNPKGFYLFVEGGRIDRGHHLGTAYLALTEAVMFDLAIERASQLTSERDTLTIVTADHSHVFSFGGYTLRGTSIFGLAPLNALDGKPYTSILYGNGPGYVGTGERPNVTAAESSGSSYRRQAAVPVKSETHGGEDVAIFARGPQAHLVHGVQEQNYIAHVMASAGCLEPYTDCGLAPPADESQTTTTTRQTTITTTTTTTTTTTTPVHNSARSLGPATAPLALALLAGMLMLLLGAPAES
Chain of DNA dC->dU-editing enzyme APOBEC-3A (P31941 whole entry): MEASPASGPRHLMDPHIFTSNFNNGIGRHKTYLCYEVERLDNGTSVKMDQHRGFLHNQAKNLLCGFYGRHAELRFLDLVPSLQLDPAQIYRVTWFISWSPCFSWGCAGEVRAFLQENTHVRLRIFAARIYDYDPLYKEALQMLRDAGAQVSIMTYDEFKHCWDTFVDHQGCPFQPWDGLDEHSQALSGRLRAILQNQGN
T3 sequence (P98170 whole entry): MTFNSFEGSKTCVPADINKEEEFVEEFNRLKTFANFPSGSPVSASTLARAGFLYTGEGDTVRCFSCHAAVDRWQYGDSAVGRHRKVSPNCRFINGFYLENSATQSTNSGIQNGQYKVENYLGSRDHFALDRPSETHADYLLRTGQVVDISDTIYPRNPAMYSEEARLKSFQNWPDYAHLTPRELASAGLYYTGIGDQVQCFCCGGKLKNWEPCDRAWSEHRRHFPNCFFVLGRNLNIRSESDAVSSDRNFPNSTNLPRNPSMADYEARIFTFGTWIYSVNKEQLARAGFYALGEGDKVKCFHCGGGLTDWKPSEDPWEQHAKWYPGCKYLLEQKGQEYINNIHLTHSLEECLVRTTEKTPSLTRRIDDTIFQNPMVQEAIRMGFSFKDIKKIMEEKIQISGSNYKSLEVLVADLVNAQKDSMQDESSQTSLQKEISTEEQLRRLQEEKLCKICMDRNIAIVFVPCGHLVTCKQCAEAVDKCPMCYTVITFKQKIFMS
Chain of DNA dC->dU-editing enzyme APOBEC-3G (Q9HC16 whole entry): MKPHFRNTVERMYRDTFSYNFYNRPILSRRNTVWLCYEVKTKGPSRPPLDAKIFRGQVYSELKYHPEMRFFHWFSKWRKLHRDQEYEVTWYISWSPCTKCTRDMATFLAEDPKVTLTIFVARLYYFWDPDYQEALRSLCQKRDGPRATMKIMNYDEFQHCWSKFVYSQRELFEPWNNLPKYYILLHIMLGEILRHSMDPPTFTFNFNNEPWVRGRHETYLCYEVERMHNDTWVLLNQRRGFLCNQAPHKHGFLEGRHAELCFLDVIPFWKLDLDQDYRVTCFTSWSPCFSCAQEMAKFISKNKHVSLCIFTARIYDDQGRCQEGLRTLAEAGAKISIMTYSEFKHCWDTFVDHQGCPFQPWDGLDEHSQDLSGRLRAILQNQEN
Chain of Intestinal-type alkaline phosphatase (Homo sapiens, UniProt P09923) (P09923 whole entry): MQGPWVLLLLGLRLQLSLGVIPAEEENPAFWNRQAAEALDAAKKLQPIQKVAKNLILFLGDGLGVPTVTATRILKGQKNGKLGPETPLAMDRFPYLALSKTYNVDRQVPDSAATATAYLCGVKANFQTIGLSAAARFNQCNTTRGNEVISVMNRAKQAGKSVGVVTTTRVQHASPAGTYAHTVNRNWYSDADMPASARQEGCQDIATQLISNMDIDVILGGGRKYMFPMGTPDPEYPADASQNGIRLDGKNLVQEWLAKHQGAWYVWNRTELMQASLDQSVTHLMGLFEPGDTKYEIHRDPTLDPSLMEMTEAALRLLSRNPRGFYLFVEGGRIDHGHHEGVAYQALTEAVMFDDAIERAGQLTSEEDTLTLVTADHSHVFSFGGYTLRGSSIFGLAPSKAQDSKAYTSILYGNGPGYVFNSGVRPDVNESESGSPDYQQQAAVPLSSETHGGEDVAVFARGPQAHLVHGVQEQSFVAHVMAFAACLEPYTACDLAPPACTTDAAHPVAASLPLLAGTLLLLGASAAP
Chain of Peroxisome proliferator-activated receptor gamma/Nuclear receptor coactivator 3 (P37231 whole entry): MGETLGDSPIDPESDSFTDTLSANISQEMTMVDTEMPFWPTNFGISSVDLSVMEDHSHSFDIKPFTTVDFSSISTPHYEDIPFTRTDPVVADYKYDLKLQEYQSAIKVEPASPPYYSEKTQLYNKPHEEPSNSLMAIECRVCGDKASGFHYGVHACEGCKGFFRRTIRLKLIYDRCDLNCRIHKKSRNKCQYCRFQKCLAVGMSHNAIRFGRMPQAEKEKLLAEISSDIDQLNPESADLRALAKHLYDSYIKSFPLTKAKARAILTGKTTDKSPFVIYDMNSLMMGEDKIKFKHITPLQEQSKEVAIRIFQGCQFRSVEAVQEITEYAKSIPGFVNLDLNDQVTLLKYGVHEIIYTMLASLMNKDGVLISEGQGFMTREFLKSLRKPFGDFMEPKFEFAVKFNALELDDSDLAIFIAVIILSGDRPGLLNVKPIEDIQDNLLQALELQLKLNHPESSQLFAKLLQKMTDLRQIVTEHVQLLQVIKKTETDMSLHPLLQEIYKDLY
Chain of Peroxisome proliferator-activated receptor gamma/Nuclear receptor coactivator 3 (Q9Y6Q9 whole entry, further chain): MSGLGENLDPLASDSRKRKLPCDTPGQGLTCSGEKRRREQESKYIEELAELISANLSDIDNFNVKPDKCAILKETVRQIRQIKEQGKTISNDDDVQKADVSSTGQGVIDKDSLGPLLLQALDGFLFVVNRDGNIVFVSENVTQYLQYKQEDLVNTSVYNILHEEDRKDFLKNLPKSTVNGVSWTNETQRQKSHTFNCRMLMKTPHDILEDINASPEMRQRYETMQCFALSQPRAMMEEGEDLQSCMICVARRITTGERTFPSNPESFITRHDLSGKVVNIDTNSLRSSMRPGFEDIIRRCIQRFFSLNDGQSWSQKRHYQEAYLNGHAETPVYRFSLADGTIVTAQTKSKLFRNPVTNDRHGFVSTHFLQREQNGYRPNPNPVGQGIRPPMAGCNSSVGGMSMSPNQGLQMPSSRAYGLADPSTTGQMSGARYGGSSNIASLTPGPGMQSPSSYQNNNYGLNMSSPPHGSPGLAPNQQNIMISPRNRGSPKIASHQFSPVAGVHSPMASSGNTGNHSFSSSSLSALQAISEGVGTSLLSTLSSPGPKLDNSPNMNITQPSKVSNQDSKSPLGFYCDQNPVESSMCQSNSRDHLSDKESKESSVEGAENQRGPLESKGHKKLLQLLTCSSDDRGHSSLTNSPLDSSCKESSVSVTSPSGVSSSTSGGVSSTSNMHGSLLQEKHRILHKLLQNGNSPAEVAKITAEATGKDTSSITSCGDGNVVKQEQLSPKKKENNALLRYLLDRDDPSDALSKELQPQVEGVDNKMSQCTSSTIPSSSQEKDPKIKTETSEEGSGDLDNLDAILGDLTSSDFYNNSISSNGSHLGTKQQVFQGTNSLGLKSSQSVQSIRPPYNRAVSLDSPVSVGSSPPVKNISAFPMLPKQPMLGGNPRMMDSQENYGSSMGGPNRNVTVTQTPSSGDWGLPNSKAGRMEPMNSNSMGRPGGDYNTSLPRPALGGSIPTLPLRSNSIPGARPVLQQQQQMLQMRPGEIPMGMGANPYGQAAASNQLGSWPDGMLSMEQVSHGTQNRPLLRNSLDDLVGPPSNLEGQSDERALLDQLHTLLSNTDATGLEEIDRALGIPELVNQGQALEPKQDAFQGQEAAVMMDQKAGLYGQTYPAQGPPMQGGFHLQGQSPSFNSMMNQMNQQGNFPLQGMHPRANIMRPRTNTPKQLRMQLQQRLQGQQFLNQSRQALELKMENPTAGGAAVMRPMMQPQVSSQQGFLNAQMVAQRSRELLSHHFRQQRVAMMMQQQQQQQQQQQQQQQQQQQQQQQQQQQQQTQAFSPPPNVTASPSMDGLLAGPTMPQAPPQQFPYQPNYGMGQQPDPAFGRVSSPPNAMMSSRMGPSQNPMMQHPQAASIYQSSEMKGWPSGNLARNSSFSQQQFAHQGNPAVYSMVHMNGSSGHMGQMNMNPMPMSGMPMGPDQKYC
Chain of Albumin (P02769 whole entry): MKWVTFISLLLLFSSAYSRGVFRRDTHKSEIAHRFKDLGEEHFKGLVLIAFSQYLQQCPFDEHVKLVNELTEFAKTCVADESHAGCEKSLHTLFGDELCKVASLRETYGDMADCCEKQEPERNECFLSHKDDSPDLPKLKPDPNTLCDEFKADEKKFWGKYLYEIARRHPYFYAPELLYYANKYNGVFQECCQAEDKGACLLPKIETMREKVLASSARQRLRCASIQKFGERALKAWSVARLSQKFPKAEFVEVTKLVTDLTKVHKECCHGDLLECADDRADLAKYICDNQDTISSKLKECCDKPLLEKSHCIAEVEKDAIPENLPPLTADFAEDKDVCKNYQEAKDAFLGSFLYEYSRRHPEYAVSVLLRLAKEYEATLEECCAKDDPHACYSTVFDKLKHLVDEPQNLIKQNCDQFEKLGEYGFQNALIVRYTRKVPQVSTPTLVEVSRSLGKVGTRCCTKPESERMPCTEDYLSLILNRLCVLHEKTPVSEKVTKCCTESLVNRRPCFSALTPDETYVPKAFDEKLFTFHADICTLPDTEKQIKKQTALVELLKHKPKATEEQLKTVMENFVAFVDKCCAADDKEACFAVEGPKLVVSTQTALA

Clc1ccccc1CN1CCN(CCCc2ccccc2)CC1
IC50 (Coagulation factor XII): > 50 µM (inactive)

Cc1ccn(C)c(=N)c1
IC50 [1]: 7.71 µM (active)
IC50 [2]: 7.58 µM (active)

COc1ccc(OC)c(C(=S)NCc2ccc(C(F)(F)F)cc2)c1
IC50 [3]: 38.4 µM (active)
IC50 [4]: 48.4 µM (active)

COc1ccc(S(=O)(=O)N(C)C[C@@H]2Oc3c(NC(=O)c4cc(C)nn4C)cccc3C(=O)N([C@@H](C)CO)C[C@H]2C)cc1
AC50 (INS1): > 260 µM (inactive)

COc1ccc(C(=O)N(CN2CCCC2=O)c2ccccc2OC)cc1OC
IC50 [5]: > 100 µM (inactive)
IC50 [6]: > 100 µM (not active)

CCN(C(=O)CCN1C(=O)/C(=C/c2ccccc2)SC1=S)C1CCS(=O)(=O)C1 (stereo unspecified)
IC50 (Vero [7]): > 25 µM (active)
CC50 (Vero [8]): 22.1 µM (active)

COc1cc(/C=N/NC(=O)c2cc(O)cc(O)c2)ccc1OC(=O)c1ccccc1
IC50 [9]: 4.43 µM (active)
IC50 [10]: 26.8 µM (active)
IC50 [11]: 77.1 µM (active)
IC50 (Albumin): > 94.1 µM (inactive)

Cn1c(=O)cc(SCC(=O)NCCCN2CCOCC2)c2ccc(Cl)cc21
EC50 [12]: > 79.4 µM (inactive)
EC50 [13]: > 79.4 µM (not active)
EC50 [14]: > 79.4 µM (not active)
AC50 (Cytochrome P450 2C19): 10 µM (inconclusive)

CCn1nc(C)c(CNC(=O)c2cc(COc3ccc(F)cc3Cl)on2)c1C
IC50 (Coagulation factor XII): > 50 µM (inactive)

Clc1ccc(-c2nc3cc(CN4CCCCC4)ccc3o2)cc1
IC50 (Vero [7]): > 25 µM (active)
CC50 (Vero [8]): > 25 µM (active)
IC50 (Protein skinhead-1): 4.15 µM (active)

Cc1cc(-c2ccccc2)nc2c(Br)c(C(=O)O)nn12
IC50 [1]: 25.2 µM (active)
IC50 [2]: 37.7 µM (active)
IC50 [15]: 2.44 µM (active)

O=C(NNC(=O)c1cc2cc(Br)ccc2oc1=O)c1ccc(O)cc1O
IC50 [9]: 12.9 µM (active)
IC50 [10]: > 100 µM (inactive)
IC50 [11]: > 100 µM (inactive)
IC50 (H9c2): > 79 µM (inactive)
IC50 [16]: 16.3 µM (active)
IC50 [17]: 44.7 µM (active)
